Laboratory results taken from patent publication US9648876B2, “Method of inhibiting biofilm formation” (Research Foundation of the City University of New York, priority 2015, dated 2017).
Where two headings read alike, the source gives them in different places.

Columns and labels:
[1] = test system: C. albicans DAY185 planktonic cells; experiment: Planktonic cell growth and viability; assay type: cell-based, Candida albicans; settings: 0.06 μg per ml
Method: Small arrows (FIG. 1B and FIG. 1C) denote chains of yeast cells. Note the microcolonies apparent in the control culture at 3 hours (FIG. 2B) and 9 hours (FIG. 2C) denoted by the large arrows. […] Under these conditions, some yeast cells formed short linear chains, but there were few germ tubes, and the culture never developed true hyphae. […] When germ tubes were allowed to emerge before treatment with xanthochymol, the germ tubes elongated and branched for several hours. In contrast, when C. albicans DAY185 planktonic cells were grown in YPD in the presence or absence of either Garcinia benzophenone (70 μg per ml), there was no significant effect on the growth or viability.

[2] = test system: C. albicans mature biofilms; experiment: Established (mature, 24-h) biofilm susceptibility (XTT reduction, LIVE/DEAD confocal microscopy)
Method: LIVE/DEAD staining of the biofilm was performed and dead cells were quantified in confocal micrographs.
(§1) Candida albicans was subcultured onto Sabouraud dextrose agar (per liter: peptone 10 g, dextrose 40 g, agar 15 g; pH of 5.6) and incubated at 30° C. for 24 h. One colony was then added to yeast extract-peptone-dextrose (YPD; 1% yeast extract, 2% peptone, 2% dextrose) and incubated with shaking at 30° C. and 170 rpm for 16 h, after which cells were harvested, washed in phosphate-buffered saline (PBS), and diluted to a standard inoculum of 1.0×10^6 cells per ml.
(§2) For biofilm assays in microtiter plates, 100 μl of a standard inoculum of C. albicans cells (1.0×10^6 cells per ml) was added to the wells of a 96-well plate in triplicate, and the cells were allowed to adhere for 90 min at 37° C. After incubation, the plates were washed twice with PBS to remove nonattached cells. Then 100 μl of RPMI 1640 with L-glutamine, without sodium bicarbonate (GIBCO®), buffered to pH 7.0 with 165 mM morpholinepropanesulfonic acid (MOPS) was added to each well, and the plates were incubated at 37° C. for 24 h. Early-stage biofilms were prepared essentially as above, with the exception that the cells were induced to form biofilms for either 3 or 6 h prior to treatment.
Fluconazole was obtained from Sigma. All drugs were dissolved in dimethyl sulfoxide (DMSO).
Menadione and XTT [2,3-bis-(2-methoxy-4-nitro-5-sulfophenyl)-2H-tetrazolium-5-carboxyanilide] were obtained from Sigma-Aldrich. After a drug challenge, the wells were washed twice with PBS, and then 100 μl of XTT-menadione solution was added to the wells, and plates incubated in the dark for 1 h at 37° C. The absorbance of wells at 490 nm was read using a microplate reader (Biotec/Synergy software).
Candida albicans biofilms were treated with or without test compounds for various times, depending on the experimental design, after which the cells were prepared for microscopy by staining with the BacLight yeast viability kit, the contents of which include Syto-9 and propidium iodide (Molecular Probes, Eugene, Oreg.) according to the manufacturer's instructions. Confocal images were obtained using an Olympus FluoView10i microscope and a filter set for Syto-9 and propidium iodide. Overlays included phase contrast images. All confocal images were processed using ImageJ.
Biofilm viability was assayed by XTT reduction and calculated as follows:
[formula] where background wells contained XTT solution only; untreated wells received cells only, with no added drug.

[3] = molecular target: histone acetyltransferase (HAT) p300 (Homo sapiens, UniProt Q09472); settings: cited from earlier work
pCAF = pCAF (Homo sapiens, UniProt Q92831); settings: cited from earlier work
[4] = test system: C. albicans early biofilms; assay type: cell-based, Candida albicans; settings: fluconazole at 32 μg per ml, FIG. 3
Method: as §1
as §2, with “Early-stage biofilms were prepared essentially as above, with the exception that the cells were induced to form biofilms for either 3 or 6 h prior to treatment.” left out
Menadione and XTT [2,3-bis-(2-methoxy-4-nitro-5-sulfophenyl)-2H-tetrazolium-5-carboxyanilide] were obtained from Sigma-Aldrich. […] The absorbance of wells at 490 nm was read using a microplate reader (Biotec/Synergy software). […]
Biofilm viability was assayed by XTT reduction and calculated as follows: […]

Chain of histone acetyltransferase (HAT) p300 (Q09472 whole entry): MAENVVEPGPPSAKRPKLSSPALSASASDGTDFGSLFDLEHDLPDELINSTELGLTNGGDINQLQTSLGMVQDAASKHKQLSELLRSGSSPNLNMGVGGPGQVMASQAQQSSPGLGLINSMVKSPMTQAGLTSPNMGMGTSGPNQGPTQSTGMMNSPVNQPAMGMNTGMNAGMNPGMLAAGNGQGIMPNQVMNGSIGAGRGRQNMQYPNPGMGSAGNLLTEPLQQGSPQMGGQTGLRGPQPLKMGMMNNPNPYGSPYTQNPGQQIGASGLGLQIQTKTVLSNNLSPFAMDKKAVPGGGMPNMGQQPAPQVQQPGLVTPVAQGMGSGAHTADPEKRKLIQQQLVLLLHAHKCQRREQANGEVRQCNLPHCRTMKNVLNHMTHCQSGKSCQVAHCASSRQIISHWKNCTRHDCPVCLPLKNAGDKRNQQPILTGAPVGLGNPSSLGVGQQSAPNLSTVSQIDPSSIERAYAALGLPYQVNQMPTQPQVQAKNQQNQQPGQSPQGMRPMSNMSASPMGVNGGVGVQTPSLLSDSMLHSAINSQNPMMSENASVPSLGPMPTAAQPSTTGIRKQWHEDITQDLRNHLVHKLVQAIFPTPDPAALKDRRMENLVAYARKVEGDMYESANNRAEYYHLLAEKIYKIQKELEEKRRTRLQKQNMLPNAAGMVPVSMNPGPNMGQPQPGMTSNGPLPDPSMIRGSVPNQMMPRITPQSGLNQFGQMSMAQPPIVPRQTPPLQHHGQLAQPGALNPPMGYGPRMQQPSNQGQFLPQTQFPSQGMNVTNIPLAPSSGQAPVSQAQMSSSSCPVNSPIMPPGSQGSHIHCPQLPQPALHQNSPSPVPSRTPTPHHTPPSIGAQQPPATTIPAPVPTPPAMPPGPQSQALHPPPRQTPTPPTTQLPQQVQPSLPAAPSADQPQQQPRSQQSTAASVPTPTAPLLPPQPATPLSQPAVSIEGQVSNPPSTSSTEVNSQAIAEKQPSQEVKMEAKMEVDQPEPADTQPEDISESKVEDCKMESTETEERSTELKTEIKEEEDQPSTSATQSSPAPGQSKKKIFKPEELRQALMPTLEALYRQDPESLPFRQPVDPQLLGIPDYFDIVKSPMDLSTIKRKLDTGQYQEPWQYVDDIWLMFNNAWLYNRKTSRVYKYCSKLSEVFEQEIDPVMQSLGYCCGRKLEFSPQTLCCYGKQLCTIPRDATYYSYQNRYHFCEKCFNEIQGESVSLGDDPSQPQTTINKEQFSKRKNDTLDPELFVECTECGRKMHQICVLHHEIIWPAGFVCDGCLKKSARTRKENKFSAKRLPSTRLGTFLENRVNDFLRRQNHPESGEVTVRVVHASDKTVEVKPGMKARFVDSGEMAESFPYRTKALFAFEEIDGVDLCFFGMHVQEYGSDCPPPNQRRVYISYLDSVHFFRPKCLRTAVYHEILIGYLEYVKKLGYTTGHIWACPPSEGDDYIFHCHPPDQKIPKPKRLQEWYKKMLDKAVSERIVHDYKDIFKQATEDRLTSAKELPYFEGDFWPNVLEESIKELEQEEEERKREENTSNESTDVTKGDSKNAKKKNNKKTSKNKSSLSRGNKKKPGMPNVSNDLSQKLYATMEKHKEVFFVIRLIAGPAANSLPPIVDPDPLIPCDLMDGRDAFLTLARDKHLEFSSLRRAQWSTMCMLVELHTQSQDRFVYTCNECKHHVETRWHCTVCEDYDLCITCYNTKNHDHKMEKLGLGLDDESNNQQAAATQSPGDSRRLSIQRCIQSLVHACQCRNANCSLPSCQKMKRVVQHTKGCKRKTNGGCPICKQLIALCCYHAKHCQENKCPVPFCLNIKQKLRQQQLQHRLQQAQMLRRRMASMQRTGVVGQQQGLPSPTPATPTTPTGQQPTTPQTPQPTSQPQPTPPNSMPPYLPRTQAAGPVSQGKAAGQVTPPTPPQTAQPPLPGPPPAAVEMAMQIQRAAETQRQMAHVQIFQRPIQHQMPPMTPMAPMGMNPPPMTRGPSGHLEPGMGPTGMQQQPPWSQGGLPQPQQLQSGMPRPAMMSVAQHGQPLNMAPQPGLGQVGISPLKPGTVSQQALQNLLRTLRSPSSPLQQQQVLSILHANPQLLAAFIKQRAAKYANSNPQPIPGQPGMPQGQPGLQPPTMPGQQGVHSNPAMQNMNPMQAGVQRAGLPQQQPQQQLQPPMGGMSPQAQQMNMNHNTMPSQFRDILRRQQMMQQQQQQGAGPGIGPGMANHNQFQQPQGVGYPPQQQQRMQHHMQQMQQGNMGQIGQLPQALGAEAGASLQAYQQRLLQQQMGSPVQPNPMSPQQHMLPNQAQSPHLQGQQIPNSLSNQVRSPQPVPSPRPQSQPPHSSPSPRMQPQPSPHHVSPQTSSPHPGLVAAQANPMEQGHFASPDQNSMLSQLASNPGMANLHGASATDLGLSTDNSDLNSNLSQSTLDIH
Chain of pCAF (Q92831 whole entry, species assumed): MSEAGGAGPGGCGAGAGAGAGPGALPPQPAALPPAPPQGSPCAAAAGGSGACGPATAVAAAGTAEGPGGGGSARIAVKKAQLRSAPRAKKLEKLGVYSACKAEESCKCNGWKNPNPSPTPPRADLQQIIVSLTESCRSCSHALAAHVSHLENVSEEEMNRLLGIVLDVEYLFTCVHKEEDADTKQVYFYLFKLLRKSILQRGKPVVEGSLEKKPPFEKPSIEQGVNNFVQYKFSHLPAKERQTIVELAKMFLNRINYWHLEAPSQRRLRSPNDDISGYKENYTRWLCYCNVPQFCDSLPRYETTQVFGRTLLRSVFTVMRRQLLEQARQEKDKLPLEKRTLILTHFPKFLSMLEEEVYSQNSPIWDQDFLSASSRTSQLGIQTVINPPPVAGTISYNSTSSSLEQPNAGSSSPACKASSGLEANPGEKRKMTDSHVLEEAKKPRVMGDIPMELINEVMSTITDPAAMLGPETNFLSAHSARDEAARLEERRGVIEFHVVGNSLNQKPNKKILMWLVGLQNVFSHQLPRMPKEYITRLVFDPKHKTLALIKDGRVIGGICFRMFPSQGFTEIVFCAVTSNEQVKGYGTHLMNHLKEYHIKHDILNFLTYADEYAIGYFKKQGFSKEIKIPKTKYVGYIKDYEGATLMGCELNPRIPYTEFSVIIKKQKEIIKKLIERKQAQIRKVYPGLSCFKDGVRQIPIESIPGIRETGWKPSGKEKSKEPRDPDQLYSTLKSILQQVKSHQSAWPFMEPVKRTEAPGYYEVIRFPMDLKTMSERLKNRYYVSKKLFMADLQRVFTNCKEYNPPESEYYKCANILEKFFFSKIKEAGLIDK

CC[C@H](C)C[C@H](C)CCCCCCCCC(=O)N[C@H]1C[C@@H](O)[C@@H](NCCN)NC(=O)[C@@H]2[C@@H](O)CCN2C(=O)[C@H]([C@H](O)CCN)NC(=O)[C@H]([C@H](O)[C@@H](O)c2ccc(O)cc2)NC(=O)[C@@H]2C[C@@H](O)CN2C(=O)[C@H]([C@@H](C)O)NC1=O [caspofungin]
killing of planktonic yeast phase cells [1]: showed killing | killing of biofilm (positive control) ([2]; 0.06 μg per ml): less effective against a biofilm

C=C(C)CC[C@@H](C[C@@]12C[C@@H](CC=C(C)C)C(C)(C)[C@@](CC=C(C)C)(C(=O)C(C(=O)c3ccc(O)c(O)c3)=C1O)C2=O)C(=C)C [garcinol]
inhibition of HAT p300 [3]: micromolar concentrations | inhibition of pCAF (pCAF): micromolar concentrations

OC(Cn1cncn1)(Cn1cncn1)c1ccc(F)cc1F [fluconazole]
reduction of biofilm activity [4]: 20% | killing of biofilm cells by microscopy ([2]; 24-h biofilms, 24 h of exposure, confocal LIVE/DEAD): minimal effect | reduction in viability ([2]; 24-h biofilms, fluconazole as high as 1,024 μg per ml, XTT assay): 15% | IC50 ([2]; Candida albicans, 24 h, read-out: fluconazole IC50): 13 µg/mL | EC50 ([2]; Candida albicans, read-out: fluconazole EC50, mature biofilms, fluconazole alone): > 1020 µg/mL | EC50 ([2]; Candida albicans, read-out: fluconazole EC50, mature biofilms, with xanthochymol): 13 µg/mL
